Assay results reported in ChEMBL document CHEMBL1123772, “2,4-Diamino-6,7-dimethoxyquinazolines. 2. 2-(4-Carbamoylpiperidino) derivatives as alpha 1-adrenoceptor antagonists and antihypertensive agents” (J Med Chem, 1987).
Active and inactive are the calls of the source. No cut-off for these calls is given here.

What was measured:
[1] = biological target: Adrenergic receptor alpha-2 (Rattus norvegicus) (UniProt P22086+P19328+P22909); assay: In vitro binding affinity determined for alpha-2 adrenergic receptor by the percentage displacement of [3H]- clonidine at 10e-6 M; Not active :Less than 50% activity.; type: protein assay
[2] = biological target: T1, Adrenergic receptor alpha-1 (Rattus norvegicus, UniProt P15823+P23944+P43140); assay: In vitro binding affinity determined for alpha-1 adrenergic receptor by the displacement of [3H]- prazosin.; type: protein assay
T1 sequence (P15823 whole entry): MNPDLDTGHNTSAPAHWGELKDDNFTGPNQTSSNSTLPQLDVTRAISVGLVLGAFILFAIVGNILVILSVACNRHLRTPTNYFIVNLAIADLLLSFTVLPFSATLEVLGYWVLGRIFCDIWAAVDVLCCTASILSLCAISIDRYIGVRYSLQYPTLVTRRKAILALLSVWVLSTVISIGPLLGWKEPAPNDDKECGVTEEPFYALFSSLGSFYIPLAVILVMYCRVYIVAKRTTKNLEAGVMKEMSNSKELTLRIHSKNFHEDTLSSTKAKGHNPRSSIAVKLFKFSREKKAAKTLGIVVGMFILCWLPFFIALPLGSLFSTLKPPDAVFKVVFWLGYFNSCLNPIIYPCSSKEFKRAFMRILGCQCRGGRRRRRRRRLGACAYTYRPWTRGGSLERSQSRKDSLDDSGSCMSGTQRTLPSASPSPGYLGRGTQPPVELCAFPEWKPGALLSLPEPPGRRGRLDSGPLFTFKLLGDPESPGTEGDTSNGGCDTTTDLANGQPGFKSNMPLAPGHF
T1 sequence (P23944 whole entry): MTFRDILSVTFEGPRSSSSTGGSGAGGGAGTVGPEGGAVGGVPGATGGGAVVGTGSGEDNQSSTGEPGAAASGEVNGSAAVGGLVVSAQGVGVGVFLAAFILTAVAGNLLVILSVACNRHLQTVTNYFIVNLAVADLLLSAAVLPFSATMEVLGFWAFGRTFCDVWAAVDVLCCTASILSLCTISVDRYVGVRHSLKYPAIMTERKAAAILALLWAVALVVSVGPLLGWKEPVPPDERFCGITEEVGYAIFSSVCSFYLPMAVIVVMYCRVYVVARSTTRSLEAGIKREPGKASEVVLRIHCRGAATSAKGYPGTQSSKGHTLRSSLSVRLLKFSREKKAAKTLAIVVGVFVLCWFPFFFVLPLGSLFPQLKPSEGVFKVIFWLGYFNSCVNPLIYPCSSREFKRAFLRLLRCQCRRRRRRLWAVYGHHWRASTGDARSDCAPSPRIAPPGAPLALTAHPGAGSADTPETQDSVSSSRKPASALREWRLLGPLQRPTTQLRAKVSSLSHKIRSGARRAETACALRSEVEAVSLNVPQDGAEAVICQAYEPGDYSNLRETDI
T1 sequence (P43140 whole entry): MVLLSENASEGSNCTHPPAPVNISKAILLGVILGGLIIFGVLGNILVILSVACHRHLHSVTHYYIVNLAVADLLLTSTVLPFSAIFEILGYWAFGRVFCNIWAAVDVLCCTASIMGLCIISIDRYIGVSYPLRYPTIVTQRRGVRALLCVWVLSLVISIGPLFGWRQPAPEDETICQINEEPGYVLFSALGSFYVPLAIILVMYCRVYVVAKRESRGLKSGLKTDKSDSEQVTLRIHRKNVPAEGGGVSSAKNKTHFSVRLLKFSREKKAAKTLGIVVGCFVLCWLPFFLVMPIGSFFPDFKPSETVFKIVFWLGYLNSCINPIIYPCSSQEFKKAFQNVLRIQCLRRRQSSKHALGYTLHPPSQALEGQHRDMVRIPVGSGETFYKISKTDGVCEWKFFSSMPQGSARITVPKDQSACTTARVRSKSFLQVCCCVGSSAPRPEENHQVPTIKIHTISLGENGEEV

[3] = system: Rattus norvegicus; assay: Antihypertensive activity determined in spontaneously hypertensive rats(SHR) by percent reduction in blood pressure at 5 mg/kg peroral administration at 4 hour; type: functional; conditions: route oral
[4] = biological target: Adrenergic receptor alpha; assay: Tested for functional alpha-antagonist activity against norepinephrine in rabbit aorta and pulmonary artery.; type: tissue-based, Oryctolagus cuniculus
[5] = system: Adrenergic receptor alpha-1 (Oryctolagus cuniculus)
[6] = system: Adrenergic receptor alpha-2 (Oryctolagus cuniculus); assay: Competitive antagonist activity of the pre junctional alpha-2 adrenergic receptor mediated vasoconstrictor action of norepinephrine expressed as concentration producing 40% reduction in contractile response at 10e-5 M; No activity

Structure (SMILES) | Displacement [1] [%] | Ki [2] [nM] | further results
COc1cc2nc(N3CCC(C(=O)NCC4CC4)CC3)nc(N)c2cc1OC | < 50 | 0.9 | –
CCN(CC)C(=O)C1CCN(c2nc(N)c3cc(OC)c(OC)cc3n2)CC1 | < 50 | 1.11 | –
CCNC(=O)C1CCN(c2nc(N)c3cc(OC)c(OC)cc3n2)CC1 | < 50 | 1.64 | –
CCCCNC(=O)C1CCCN(c2nc(N)c3cc(OC)c(OC)cc3n2)C1 (centres undefined) | < 50 | 8.25 | –
COc1cc2nc(N3CCC(C(=O)N(C)Cc4ccccc4)CC3)nc(N)c2cc1OC | – | 0.2 | –
COc1cc2nc(N3CCC(C(=O)N4CCOCC4)CC3)nc(N)c2cc1OC | < 50 | 1.14 | –
COc1cc2nc(N3CCC(C(=O)NCCO)CC3)nc(N)c2cc1OC | < 50 | 1.73 | Reduction [3]: 5%
COc1cc2nc(N3CCC(CC(=O)NCC4CC4)CC3)nc(N)c2cc1OC | – | 1.08 | pA2 [4]: 7.25; EC40 [5]: 97 nM; EC40 [6]: inactive
COc1cc2nc(N3CCC(C(=O)NCCc4ccccc4)CC3)nc(N)c2cc1OC | – | 0.1 | –
COc1cc2nc(N3CCC(C(=O)NCCOc4ccccc4)CC3)nc(N)c2cc1OC | – | 0.42 | –
COc1cc2nc(N3CCC(C(N)=O)CC3)nc(N)c2cc1OC | – | 1.46 | –
CCN(CC)C(=O)C1CCCN(c2nc(N)c3cc(OC)c(OC)cc3n2)C1 (centres undefined) | < 50 | 116.73 | Reduction [3]: 16%
CCCNC(=O)CC1CCN(c2nc(N)c3cc(OC)c(OC)cc3n2)CC1 | – | 0.65 | pA2 [4]: 7.42; EC40 [5]: 18 nM; EC40 [6]: inactive
COCCNC(=O)C1CCN(c2nc(N)c3cc(OC)c(OC)cc3n2)CC1 | < 50 | 1.13 | –
CCCCNC(=O)COC1CCN(c2nc(N)c3cc(OC)c(OC)cc3n2)CC1 | – | 0.79 | –
COc1cc2nc(N3CCC(C(=O)NCc4ccccc4)CC3)nc(N)c2cc1OC | – | 0.22 | –
COc1cc2nc(N3CCC(C(=O)NC4CCCC4)CC3)nc(N)c2cc1OC | < 50 | 0.63 | –
CCCCNC(=O)CC1CCN(c2nc(N)c3cc(OC)c(OC)cc3n2)CC1 | – | 1.4 | –
CCCCNC(=O)C1CCN(c2nc(N)c3cc(OC)c(OC)cc3n2)CC1 | – | 0.67 | –
CCCCNC(=O)CCC1CCN(c2nc(N)c3cc(OC)c(OC)cc3n2)CC1 | – | 0.47 | –
COc1cc2nc(N3CCC(C(=O)Nc4ccccc4)CC3)nc(N)c2cc1OC | < 50 | 0.47 | –
